Assays:
Mouse DAGL = Mouse DAGL assay (brain); format: biochemical; settings: RG7774 10 µM
Description: Mouse brain or human HaCaT cells (CLS Cell Lines Service, GmbH, Eppelheim, Germany) were homogenized in 50 mM Tris-HCl (pH 7.4) using a glass potter, and homogenates were centrifuged at 4°C sequentially at 800 g (10 min) and 10,000 g (30 min). The final pellet (80–200 µg) was resuspended in 50 mM Tris-HCl (pH 7.4) containing 10 mM CaCl2 and incubated at 37°C for 30 min with sn-1[^14C]-stearoyl-2-arachidonoyl-glycerol (100 µM) (ARC, MO, USA). Reactions were stopped by adding chloroform/methanol (2:1, v/v), and the organic phase was dried and fractionated by thin-layer chromatography on silica gel, as previously reported. Levels of 1[^14C]-stearoyl acid radioactivity were determined by cutting the appropriate band from the gel and analyzing using a β-scintillation counter. Mouse cells were preincubated for 15 min with RG7774 (10 µM) and added to the incubation medium. Human cells were preincubated for 15 min with 8 different concentrations of RG7774 (0.1-500 µM) and added to the incubation medium. Control experiments were carried out in the presence of the selective DAGL inhibitor, D053 (10 µM).

Human EMT = Human EMT activity (HaCaT cells); format: cell-based; settings: RG7774 10 µM
Description: HaCaT cells were seeded (350,000–400,000 cell/well) in triplicate in 12-well plates and incubated for 15 min in PBS at 37°C with [^3H]-N-arachidonoylethanolamine ([^3H]-AEA) (400 nM) (ARC, MO, USA), as previously reported. Experiments were repeated at 4°C in order to subtract passive diffusion from EMT-mediated uptake. RG7774 (10 µM) was preincubated with labeled HaCaT cells for 15 min before adding directly to the incubation medium (PBS). The selective EMT inhibitor, OMDM-1 (40 µM), was used as positive control.

[1] = tested on: LPS-induced leukocyte adhesion; test: LPS-induced leukocyte adhesion in mice with EIU (IVM); format: in vivo, BALB/c mice; settings: 6 h after LPS
Description: Male BALB/c mice aged 8–10 weeks and weighing 21–26 g (Charles River, QC, Canada) were housed in individually ventilated Allentown cages (Allentown Inc., NJ, United States). Maximum density was n = 5 per cage, with the same litter and sex. Male Lewis rats aged 7–10 weeks and weighing 200–300 g (Charles River, QC, Canada) were housed in static cages (Allentown Inc., NJ, United States), n = 2 per cage with the same litter and sex. Both mice and rats were maintained in a controlled environment (21°C–22°C, humidity range 40%–60%, and a 12 h light/dark cycle), with unrestricted access to food and water. All experiments were conducted in accordance with the standards and procedures of the Canadian Council on Animal Care ([CCAC, 2024]) and were approved by the Dalhousie University Committee on Laboratory Animals. The protocol #13-027 was approved for experimental work in mice. […] All experiments were performed and are reported in accordance with the ARRIVE guidelines ([Kilkenny et al., 2010]; [McGrath et al., 2010]).
Mice and rats were anesthetized with 5% isoflurane in 100% O2 and intraperitoneal (IP) injection of sodium pentobarbital (65 mg/kg), respectively, before receiving IVT injections of sterile 0.9% saline solution (control) or 125 ng/μL LPS (L8274, Sigma-Aldrich, St. Louis, MO, United States) diluted in 0.9% saline. Injections were administered through the pars plana using a 30-gauge needle and Hamilton syringe (Hamilton Company, Reno, NV, United States) with the assistance of a WILD M37 dissecting microscope (Leitz Canada, Vaughan, ON, Canada). Mice received 2 μL of the LPS solution; rats received 5 μL. To avoid touching the lens or damaging the eye, the tip of the needle was directed toward the posterior pole and only the beveled tip (2–3 mm) was allowed to enter the vitreal cavity. […]
IVM was used for in vivo investigations of LPS-induced leukocyte recruitment as previously described ([Toguri et al., 2014]). […] The depth of anesthesia throughout the procedure was assessed by the absence of a toe-pinch reflex. […]

[2] = Brain:plasma ratio after oral administration (GLP toxicology studies, data on file); format: in vivo; settings: rat, rats, read-out: Mean brain:plasma ratios
Mouse CB1R = Mouse CB1R (Mus musculus, UniProt P47746); test: Mouse cAMP assay in N18TG2 cells; format: cell-based; settings: RG7774 10 µM, N18TG2 cells; read-out: Mean ± SEM % inhibition of control, Mouse CB1R (cAMP assay)
Chain of Mouse CB1R (P47746 whole entry): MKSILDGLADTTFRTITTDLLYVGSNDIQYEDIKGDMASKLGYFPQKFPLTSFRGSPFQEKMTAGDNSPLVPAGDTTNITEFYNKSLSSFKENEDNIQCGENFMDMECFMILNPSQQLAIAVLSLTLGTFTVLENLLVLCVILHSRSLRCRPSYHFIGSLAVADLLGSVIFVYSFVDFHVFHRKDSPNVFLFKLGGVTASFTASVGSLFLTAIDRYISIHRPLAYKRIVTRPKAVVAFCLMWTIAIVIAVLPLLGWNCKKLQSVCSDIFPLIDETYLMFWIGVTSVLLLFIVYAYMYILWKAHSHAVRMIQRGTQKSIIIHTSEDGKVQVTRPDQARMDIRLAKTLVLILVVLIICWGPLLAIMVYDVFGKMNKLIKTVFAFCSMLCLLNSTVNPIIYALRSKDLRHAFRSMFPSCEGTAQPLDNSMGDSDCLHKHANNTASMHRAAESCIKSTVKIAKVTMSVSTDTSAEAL
Description: The effect of RG7774 on the forskolin-stimulated accumulation of cAMP was determined using the LANCE ULTRAcAMP kit (PerkinElmer Life Sciences, MA, USA), according to the manufacturer’s instructions. Briefly, N18TG2 cells preincubated for 30 min with 1-methyl-3-isobutylxanthine (1 mM) were added to 0.5 µM forskolin preincubated with or without RG7774 for 15 min. Reactions were incubated for 30 min at 37°C and Time-resolved fluorescence was measured using a Victor V Multilabel counter (PerkinElmer Life Sciences). Data were transformed into cAMP concentrations using a standard curve.

For `Cn1nnnc1Cn1nnc2c(N3CC[C@H](O)C3)nc(C(C)(C)C)nc21` [RG7774, (S)-1-(5-tert-butyl-3-[(1-methyl-1H-tetrazol-5-yl)methyl]-3H-[1,2,3]triazolo[4,5-d]pyrimidin-7-yl)pyrrolidin-3-ol], the “Mean ± SEM % inhibition of control, Mouse DAGL” value (Mouse DAGL) was 17.0 ± 17.7%, the “Mean ± SEM % inhibition of control, Human EMT” value (Human EMT) was 4.5 ± 25.5% and the “decrease in leukocyte adhesion compared to vehicle control” value (shortened to “decrease in leukocyte adhesion”) ([1]; single IV 0.03 mg/kg) was 21%. For the same molecule, the “decrease in leukocyte adhesion” value ([1]; single IV 0.3 mg/kg) was 65%, the “decrease in leukocyte adhesion” value ([1]; single IV 3 mg/kg) was 82% and the Kp [2] was 0.0955 to 0.213. The inhibition at 10 µM (Mouse CB1R) was 16.6%.
